Laboratory results from patent US10471043B2, “Compounds and methods of treating bacterial infections” (ULTUPHARMA AB, priority 2015, dated 2019).
≈ marks a conversion by molar mass, not a printed value. Where two headings read alike, the source gives them in different places.

Key:
[1] = tested on: A. baumannii; assay: MIC by broth micro-dilution; assay type: cell-based; settings: Acinetobacter baumannii, A. baumannii (G−), Table 2; read-out: MIC (μg/ml) A. baumannii
Description: (§1) At first (Table 1), MIC is determined by broth micro-dilution method. The test medium is Antibiotic Medium 3 (AM3; Difco Ltd) mixed with Phosphate Buffered Saline (PBS) in proportions 1:1. Selected MIC values are verified using cation-adjusted Mueller Hinton Broth (MHB; BD). Cell concentration of tested pathogen is adjusted to between 3 and 5×10^5 cells per ml. To verify cell concentration of tested pathogen, viable cell counts are performed directly after each MIC-test by dilution method with PBS as a dilution solvent. Cells are counted on the agar plates with 50% strength Vegetable Peptone Broth (50% VPB; Oxoid Ltd) after 16 to 20 h of incubation at 37° C.
(§2) Cells of pathogen suspended in test medium are distributed to the wells and the plates are incubated for 16 to 20 h at 37° C. Negative controls are wells with the test medium only and positive controls are wells with the pathogen in test medium. The MIC is defined as the lowest concentration of each compound with no visible growth of pathogen.

[2] = tested on: Bacillus cereus; assay: MIC by broth micro-dilution; assay type: cell-based; settings: Table 4, read-out: MIC (μg/ml) B. cereus
Description: as §1, §2

[3] = tested on: Mycobacterium smegmatis; assay: MIC by broth micro-dilution; assay type: cell-based; settings: Mycolicibacterium smegmatis; Table 4; read-out: MIC (μg/ml) M. smegmatis
Description: as §1, §2

[4] = tested on: M. frederiksbergense; assay: MIC by broth micro-dilution; assay type: cell-based; settings: Table 4; read-out: MIC (μg/ml) M. frederiksbergense
Description: as §1, §2

[5] = tested on: mupirocin-resistant strains of Staphylococcus aureus; assay: MIC against mupirocin-resistant strains; assay type: cell-based
Description: as §1, §2

[6] = tested on: Staphylococcus aureus strain LMG15975; assay: MIC by broth micro-dilution, AM3/PBS 1:1; assay type: cell-based
Description: as §1, §2
Example compounds of formula I were examined for antibacterial activity against the Gram-positive bacterium Staphylococcus aureus strain LMG15975 using the above described method (Table 1).

[7] = Cytotoxicity assay, WST-8; settings: human, HepG2 cells, CC50 (μg/mL)
[8] = tested on: Dutch Elm disease fungus; settings: Ayer & Villar 1985; cited from earlier work
[9] = tested on: Pyricularia oryziae; settings: Miyakado et al 1982; cited from earlier work
[10] = tested on: K. oxytoca; assay: MIC panel of Gram-negative bacteria (Table 7); assay type: cell-based; settings: Klebsiella oxytoca; EN0392 K. oxytoca G−
[11] = tested on: Micrococcus luteus; assay: MIC panel of Gram-negative bacteria (Table 7); assay type: cell-based; settings: EN0455 Micrococcus luteus G+ PKL 3693
[12] = tested on: E. faecalis; assay: Antimicrobial Susceptibility Test by Broth Microdilution, M07-A9 CLSI; assay type: cell-based; settings: Enterococcus faecalis
[13] = tested on: S. epidermidis; assay: as above; assay type: cell-based; settings: Staphylococcus epidermidis
[14] = tested on: K. pneumoniae; assay: MIC panel of Gram-negative bacteria (Table 7); assay type: cell-based; settings: Klebsiella pneumoniae
[15] = tested on: E. faecium; assay: Antimicrobial Susceptibility Test by Broth Microdilution, M07-A9 CLSI; assay type: cell-based; settings: Enterococcus faecium; E. faecium 7, Vancomycin-resistant, Table 5; read-out: MIC
[16] = tested on: S. aureus; assay: as above; assay type: cell-based; settings: Staphylococcus aureus
[17] = tested on: Serratia marescens; assay: MIC panel of Gram-negative bacteria (Table 7); assay type: cell-based; settings: EN0454 Serratia marescens G− PKL 3692
[18] = tested on: P. aeruginosa; assay: MIC panel of Gram-negative bacteria (Table 7); assay type: cell-based; settings: Pseudomonas aeruginosa
[19] = tested on: E. coli; assay: MIC panel of Gram-negative bacteria (Table 7); assay type: cell-based; settings: Escherichia coli
[20] = tested on: Citrobacter sp.; assay: MIC panel of Gram-negative bacteria (Table 7); assay type: cell-based; settings: EN0465 Citrobacter sp. G− PKL 3710
[21] = tested on: Enterobacter aerogenes; assay: MIC panel of Gram-negative bacteria (Table 7); assay type: cell-based; settings: Klebsiella aerogenes; EN0461 Enterobacter aerogenes G− PKL 3706
[22] = tested on: A. baumanii; assay: MIC panel of Gram-negative bacteria (Table 7); assay type: cell-based
[23] = tested on: A. Pittii/nosocomialis; assay: MIC panel of Gram-negative bacteria (Table 7); assay type: cell-based; settings: Acinetobacter pittii; EN0180 A. Pittii/nosocomialis G−
[24] = tested on: S. epidermidis; assay: MIC panel of Gram-negative bacteria (Table 7); assay type: cell-based; settings: Staphylococcus epidermidis; EN0456 S. epidermidis G+ PKL 3694
[25] = tested on: S. typhimurium; assay: MIC panel of Gram-negative bacteria (Table 7); assay type: cell-based; settings: Salmonella enterica; EN0466 S. typhimurium G− TH6509
[26] = tested on: Proteus mirabilis; assay: MIC panel of Gram-negative bacteria (Table 7); assay type: cell-based
[27] = S. aureus V55, mupirocin-resistant
[28] = S. aureus V86, mupirocin-resistant
[29] = LMG15975, S. aureus LMG15975, Table 1, read-out: MIC
[30] = LMG15975, S. aureus LMG15975, Table 1, read-out: MIC (μg/ml)
[31] = LMG15975, Table 4, read-out: MIC (μg/ml) S. aureus

Question: With CCCCCCCCCC1CC(O)=C(C(=O)CCCC)C(=O)O1 (stereo not shown) [Ex. 8, 4-hydroxy-6-nonyl-3-pentanoyl-5,6-dihydro-2H-pyran-2-one] as the compound, how does the MIC [1] read?
Answer: 8 to 16 µg/mL (≈ 24.7 to 49.3 µM)

Question: What about the MIC [2] of the same compound?
Answer: ≤ 1 µg/mL

Question: What about the MIC [3] of the same compound?
Answer: ≤ 4 µg/mL

Question: And the MIC [4]?
Answer: ≤ 4 µg/mL

Question: What about the “MIC” value [5, 27] of the same compound?
Answer: ≤0.1 µg/mL

Question: And the “MIC” value [5, 28]?
Answer: ≤0.1 µg/mL

Question: And the MIC ([5]; Staphylococcus aureus, S. aureus V321, mupirocin-resistant, read-out: MIC)?
Answer: ≤ 0.1 µg/mL

Question: And the MIC ([6]; LMG15975, S. aureus (G+), Table 2, read-out: MIC (μg/ml) S. aureus)?
Answer: < 0.6 µg/mL

Question: What about the MIC [6, 29] of the same compound?
Answer: ≤ 1.9 µM

Question: And the MIC [6, 30]?
Answer: ≤ 0.6 µg/mL

Question: What about the MIC [6, 31] of the same compound?
Answer: ≤ 0.6 µg/mL

Question: And the CC50 at 48 h ([7]; HepG2, 48 hours, Table 1)?
Answer: 36 µM

Question: For lachnellulic acid, which “activity against the Dutch Elm disease fungus” value [8] is on record?
Answer: active

Question: Which “activity against the fungus Pyricularia oryziae” value [9] does the source give for podoblastin A here?
Answer: active

Question: What does the source list for CCCCCCCCCC1CC(O)=C(C(=O)CC2CCCCC2)C(=O)O1 (stereo not shown) [Ex. 14, 3-(2-cyclohexylacetyl)-4-hydroxy-6-nonyl-5,6-dihydro-2H-pyran-2-one]?
Answer: MIC [2]: ≤ 1 µg/mL; MIC [5, 27]: ≤0.1 µg/mL; MIC [5, 28]: ≤0.1 µg/mL; MIC ([5]; S. aureus V321, mupirocin-resistant): ≤0.1 µg/mL; MIC ([5]; Staphylococcus aureus, S. aureus V308, mupirocin-resistant, read-out: MIC): ≤ 0.1 µg/mL; MIC [10]: > 64 µg/mL; MIC [11]: 0.5 µg/mL (≈ 1.37 µM); MIC ([12]; E. faecalis 14, Vancomycin-resistant): 1 µg/mL (≈ 2.74 µM); MIC ([12]; E. faecalis 24, Vancomycin-sensitive, Table 5): 1 µg/mL (≈ 2.74 µM); MIC ([13]; S. epidermis RO7, Methicillin-sensitive, Table 5): 0.5 µg/mL (≈ 1.37 µM); MIC ([13]; S. epidermis Staph 1, Methicillin-resistant): 0.5 µg/mL (≈ 1.37 µM); MIC ([13]; S. epidermis TA12, Methicillin-resistant, Table 5): 0.5 µg/mL (≈ 1.37 µM); MIC ([14]; EN006 K. pneumoniae WT, ENABLE Primary MIC panel): > 64 µg/mL; MIC ([14]; EN0010 K. pneumoniae, ENABLE L2C MIC panel (isogenic efflux pairs)): > 64 µg/mL; MIC ([14]; EN0011 K. pneumoniae Efflux mut, ENABLE L2C MIC panel): > 64 µg/mL; MIC [15]: 1 µg/mL (≈ 2.74 µM); MIC ([16]; ATCC29213, S. aureus ATCC29213, QC strain, Table 5): 2 µg/mL (≈ 5.49 µM); MIC ([16]; S. aureus 7280, Methicillin-resistant): 2 µg/mL (≈ 5.49 µM); MIC ([16]; S. aureus MO17, Methicillin-sensitive, Table 5): 1 µg/mL (≈ 2.74 µM); MIC ([16]; S. aureus PICI, Methicillin-resistant, Table 5): 1 µg/mL (≈ 2.74 µM); MIC [17]: > 64 µg/mL; MIC ([6]; LMG15975, S. aureus LMG 15975 (SLU), Methicillin-resistant, Table 5, read-out: MIC (μg/mL)): 0.25 µg/mL; MIC [6, 29]: ≤ 0.3 µM; MIC [6, 30]: 0.25 µg/mL; MIC [6, 31]: ≤ 0.1 µg/mL; CC50 at 48 h ([7]; HepG2, 48 hours, Table 1): 14 µM; CC50 at 48 h ([7]; HepG2, Table 5): 14 µM; MIC ([18]; EN004 P. aeruginosa WT, ENABLE Primary MIC panel): > 64 µg/mL; MIC ([18]; EN005 P. aeruginosa Efflux mut, ENABLE Primary MIC panel): > 64 µg/mL; MIC ([18]; EN0014 P. aeruginosa, ENABLE L2C MIC panel): > 64 µg/mL; MIC ([18]; EN0015 P. aeruginosa Efflux mut, ENABLE L2C MIC panel): > 64 µg/mL; MIC ([18]; EN0422 P. aeruginosa G−): > 64 µg/mL; MIC ([18]; EN0459 P. aeruginosa G− PKL 3699): > 64 µg/mL; MIC ([18]; EN0460 P. aeruginosa G− PKL 3704): > 64 µg/mL; MIC ([19]; EN001 E. coli WT, ENABLE Primary MIC panel): > 64 µg/mL; MIC ([19]; EN002 E. coli DtolC, ENABLE Primary MIC panel): > 64 µg/mL; MIC ([19]; EN003 E. coli D22 (lps mut), ENABLE Primary MIC panel): > 64 µg/mL; MIC ([19]; EN0012 E. coli, ENABLE L2C MIC panel): > 64 µg/mL; MIC ([19]; EN0013 E. coli Del-tolC, ENABLE L2C MIC panel): 16 µg/mL (≈ 43.9 µM); MIC ([19]; EN0458 E. coli B G− PKL 3698): > 64 µg/mL; MIC [20]: > 64 µg/mL; MIC [21]: > 64 µg/mL; MIC ([22]; Acinetobacter baumannii, EN007 A. baumanii WT, ENABLE Primary MIC panel, read-out: MIC): > 64 µg/mL; MIC ([22]; EN0016 A. baumanii, ENABLE L2C MIC panel): >64 µg/mL; MIC ([22]; EN0017 A. baumanii Efflux mut, ENABLE L2C MIC panel): >64 µg/mL; MIC [23]: > 64 µg/mL; MIC [24]: 1 µg/mL (≈ 2.74 µM); MIC [25]: > 64 µg/mL; MIC ([26]; EN0445 P. mirabilis ST19 G−): >64 µg/mL; MIC ([26]; EN0457 Proteus mirabilis G− PKL 3695, read-out: MIC): > 64 µg/mL
